Experiment [1] relates to Plasmodium falciparum. Put plainly: Antimalarial activity against chloroquine-resistant Plasmodium falciparum Dd2. It is filed as functional, organism-based.
The subject of experiment [2] is Plasmodium falciparum. Put plainly: Antimalarial activity against chloroquine-sensitive Plasmodium falciparum HB3. It is filed as functional, organism-based.
Experiment [3] has as its target Superoxide dismutase [Fe] (Plasmodium falciparum) (UniProt Q9TW89). Put plainly: Inhibition of Plasmodium falciparum recombinant superoxide dismutase at 50 uM.
Experiment [4] in a line: Inhibition of LPS-stimulated nitric oxide formation in mouse microglial cells. It is filed as functional, cell-based.
The subject of experiment [5] is Leishmania amazonensis. Put plainly: Antileishmanial activity against Leishmania amazonensis intracellular amastigotes. It is filed as functional. Conditions: read-out: ED50 (the source's name).
The subject of experiment [6] is Leishmania amazonensis. Put plainly: Antileishmanial activity against Leishmania amazonensis promastigotes. It is filed as functional. Conditions: read-out: ED50 (the source's name).
The test system of experiment [7] is Cladosporium cladosporioides. Put plainly: Fungicidal activity against Cladosporium cladosporioides. It is filed as functional.
Experiment [8] concerns Staphylococcus aureus. Put plainly: Antibacterial activity against methicillin-resistant Staphylococcus aureus OM481. It is filed as functional.
In experiment [9] the test system is Enterococcus faecalis. Put plainly: Antibacterial activity against Enterococcus faecalis. It is filed as functional.
A short description of experiment [10]: Inhibition of Leishmania major NADH-dehydrogenase in human PBMCs crude mitochondria after 60 mins.
Experiment [11] relates to Staphylococcus aureus. Put plainly: Antibacterial activity against methicillin-resistant Staphylococcus aureus K3. It is filed as functional.
Experiment [12] relates to Helicobacter pylori. Briefly: Growth inhibition of Helicobacter […]. It is filed as functional.
The subject of experiment [13] is Geobacillus stearothermophilus. Put plainly: Antibacterial activity against Bacillus stearothermophilus. It is filed as functional.
The nature of experiment [14]: Inhibition of Leishmania major NADH-cytochrome c reductase.
Experiment [15] has as its system Streptococcus mutans. Put plainly: Antibacterial activity against […]. It is filed as functional.
The nature of experiment [16]: Inhibition of Leishmania major succinate dehydrogenase in human PBMCs crude mitochondria after 60 mins.
Experiment [17] is described as follows: Inhibition of Leishmania major succinate dehydrogenase.
Experiment [18] concerns Mycobacterium marinum. Briefly: Antibacterial activity against Mycobacterium marinum. It is filed as functional.
For experiment [19], the system named is Mycobacterium kansasii. Briefly: Antibacterial activity against Mycobacterium kansasii. It is filed as functional.
The test system of experiment [20] is Plasmodium falciparum. Briefly: Antiplasmodial activity against chloroquine-resistant Plasmodium falciparum W2. It is filed as functional, organism-based.
Experiment [21] has as its system Heyndrickxia coagulans. Put plainly: Antibacterial activity against Bacillus coagulans. It is filed as functional.
Experiment [22] can be described thus: Inhibition of Leishmania donovani fumarate reductase in after 60 mins.
Experiment [23] has as its system Staphylococcus aureus. Put plainly: Antibacterial activity against methicillin-resistant Staphylococcus aureus OM505. It is filed as functional.
Experiment [24] in a line: Inhibition of Leishmania major succinate-cytochrome c reductase.
Experiment [25] has as its system Clostridium sporogenes. Put plainly: Antibacterial activity against Clostridium sporogenes. It is filed as functional.
The subject of experiment [26] is Enterococcus faecium. Put plainly: Antibacterial activity against Enterococcus faecium. It is filed as functional.
In experiment [27] the test system is Mycobacterium xenopi. Briefly: Antibacterial activity against Mycobacterium xenopi. It is filed as functional.
The test system of experiment [28] is Staphylococcus aureus. Put plainly: Antibacterial activity against methicillin-sensitive Staphylococcus aureus FDA209P. It is filed as functional.
The subject of experiment [29] is Lactococcus lactis. Briefly: Antibacterial activity against Streptococcus lactis. It is filed as functional.
The test system of experiment [30] is Staphylococcus aureus. Briefly: Antibacterial activity against methicillin-sensitive Staphylococcus aureus Smith. It is filed as functional.
For experiment [31], the system named is Lactiplantibacillus plantarum. Put plainly: Antibacterial activity against Lactobacillus plantarum. It is filed as functional.
Experiment [32] deals with Bacillus cereus. Briefly: Antibacterial activity against Bacillus cereus. It is filed as functional.
Experiment [33] relates to Bacillus subtilis. Put plainly: Antibacterial activity against Bacillus subtilis. It is filed as functional.
Experiment [34] relates to Leishmania major. Briefly: Growth inhibition of Leishmania major promastigotes assessed as [3H]thymidine incorporation. It is filed as functional, organism-based. In general terms: Uptake of a labelled nucleoside into DNA is a usual measure of proliferation.
Experiment [35] in a line: Inhibition of Leishmania major NADH dehydrogenase.
In experiment [36] the test system is Mycobacterium tuberculosis. Briefly: Antibacterial activity against Mycobacterium tuberculosis. It is filed as functional.
The test system of experiment [37] is Staphylococcus aureus. Put plainly: Antibacterial activity against methicillin-resistant Staphylococcus aureus ST28. It is filed as functional.
The subject of experiment [38] is Lactobacillus acidophilus. Put plainly: Antibacterial activity against Lactobacillus acidophilus. It is filed as functional.
Experiment [39] concerns Leishmania donovani. Briefly: Inhibition of Leishmania donovani amastigotes in human monocyte-derived macrophages. It is filed as functional, organism-based.
For experiment [40], the system named is Staphylococcus aureus. Briefly: Antibacterial activity against Staphylococcus aureus. It is filed as functional, organism-based.
Experiment [41] concerns Plasmodium falciparum. Briefly: Antiplasmodial activity against chloroquine-sensitive Plasmodium falciparum D6. It is filed as functional, organism-based.

≈ marks a conversion by molar mass, not a printed value.

Chain of Superoxide dismutase [Fe] (Plasmodium falciparum) (Q9TW89 whole entry): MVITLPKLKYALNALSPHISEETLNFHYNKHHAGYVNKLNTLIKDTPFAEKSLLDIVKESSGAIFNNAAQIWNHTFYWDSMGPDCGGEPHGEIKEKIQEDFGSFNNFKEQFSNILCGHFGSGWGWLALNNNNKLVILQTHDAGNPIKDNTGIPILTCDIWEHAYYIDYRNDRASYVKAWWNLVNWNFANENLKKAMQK

For the compound `CC(C)(C)c1ccc(C(=O)/C=C/c2ccc(Br)cc2)cc1`, the IC50 (commonly the concentration needed to halve the response being measured) in [1] came to 27 µM; in [2], 37 µM. Moreover, the inhibition (in general, the relative decrease from the control value, in per cent) in experiment [3] was found to be 83%.

The compound `CCCCOc1ccc(OCCCC)c(C(=O)/C=C/c2ccc(Cl)cc2)c1` gave an IC50 in [4] of 0.7 µM.

Take `COc1cc(O)c(C(=O)/C=C/c2ccccc2)c(O)c1`: the EC50 was found to be 24 µg/mL (≈ 88.8 µM) in [5] and 0.5 µg/mL (≈ 1.85 µM) in experiment [6].

`CC1(C)CCc2c(O)ccc(C(=O)/C=C/c3ccc(O)cc3)c2O1` had an MIC in experiment [7] of 2 µg.

Regarding `C=CC(C)(C)c1cc(/C=C/C(=O)c2ccc(O)cc2)c(OC)cc1O` [LICOAGROCHACONE A], the MIC in experiment [8] stood at 16 µg/mL (≈ 47.3 µM); in experiment [9], 6 µg/mL (≈ 17.7 µM); in experiment [11] it was 6.25 µg/mL (≈ 18.5 µM); in experiment [12] it was 25 µg/mL (≈ 73.9 µM); in [13], 2 µg/mL (≈ 5.91 µM); in experiment [15], 5 µg/mL (≈ 14.8 µM). Moreover, the MIC was at most 20 µg/mL in [18]; at most 20 µg/mL in [19]; 2 µg/mL (≈ 5.91 µM) in experiment [21]; 16 µg/mL (≈ 47.3 µM) in [23]; 8 µg/mL (≈ 23.6 µM) in [25]; 6 µg/mL (≈ 17.7 µM) in experiment [26]. The MIC in experiment [27] is at most 20 µg/mL; in experiment [28] it was 16 µg/mL (≈ 47.3 µM); in [29], 8 µg/mL (≈ 23.6 µM); in experiment [30], 3.13 µg/mL (≈ 9.25 µM); in experiment [31] it was 5 µg/mL (≈ 14.8 µM); in experiment [32], 3 µg/mL (≈ 8.87 µM). Further, the MIC was 2 µg/mL (≈ 5.91 µM) in [33]; at most 20 µg/mL in experiment [36]; 6.25 µg/mL (≈ 18.5 µM) in experiment [37]; 5 µg/mL (≈ 14.8 µM) in experiment [38]; 3 µg/mL (≈ 8.87 µM) in experiment [40]. The IC50 in [10] worked out at 1400 µM; in experiment [14], 1980 µM; in experiment [16], 1400 µM; in experiment [17] it was 593 µM; in experiment [20], 10.3 µM; in experiment [22], 14 µM. Further, the IC50 was determined as 1520 µM in experiment [24]; 4 µM in experiment [34]; 460 µM in experiment [35]; 0.65 µM in experiment [39]; 10.3 µM in [41].

The values are drawn from ChEMBL document CHEMBL1140598, “A review of anti-infective and anti-inflammatory chalcones” (Eur J Med Chem, 2007).
